For one molecule, IC50 results are on record in US20260240847A1, “COMPOUNDS WITH ANTI-TUMOR ACTIVITY AGAINST CANCER CELLS BEARING TYROSINE KINASE INHIBITOR RESISTANT EGFR MUTATIONS” (BOARD OF REGENTS, THE UNIVERSITY OF TEXAS SYSTEM, priority 2019, published 2026).

One assay deals with WT EGFR (Homo sapiens, UniProt P00533). Particulars: read-out: IC50 values; Ba/F3 cells expressing WT EGFR (+10 ng/ml EGF), 72 hours.
The next assay has as its target EGFR L858R T790M L792H (Homo sapiens, UniProt P00533, L792H/L858R/T790M). Briefly: Ba/F3 cell viability, Cell Titer Glo. Particulars: read-out: IC50 Values; Ba/F3 cells expressing EGFR L858R T790M L792H, 72 hours.
Another assay addresses EGFR L858R T790M/C797S (Homo sapiens, UniProt P00533, C797S/L858R/T790M). Kind of assay: Ba/F3 cell viability, Cell Titer Glo. The note with it: read-out: IC50 Values; Ba/F3 cells expressing EGFR L858R T790M/C797S, 72 hours. (In ATP-based viability assays light output follows the ATP content of the culture.)
Another assay has as its target EGFR Ex19del T790M C797S (Homo sapiens, UniProt P00533, C797S/DEL746-750/T790M). Briefly: Ba/F3 cell viability, Cell Titer Glo. Particulars: read-out: IC50 Values; Ba/F3 cells expressing EGFR Ex19del T790M C797S, 72 hours.
The target in another assay is EGFR L858R/T790M/L718Q (Homo sapiens, UniProt P00533, L718Q/L858R/T790M). Briefly: Ba/F3 cell viability, Cell Titer Glo. The note with it: read-out: IC50 Values; Ba/F3 cells expressing EGFR L858R/T790M/L718Q, 72 hours.
Another assay addresses EGFR L718Q T790M (Homo sapiens, UniProt P00533, L718Q/T790M). Kind of assay: Ba/F3 cell viability, Cell Titer Glo. Particulars: read-out: IC50 Values; Ba/F3 cells expressing EGFR L718Q T790M, 72 hours.
In a further assay the target is EGFR L858R T790M L718V (Homo sapiens, UniProt P00533, L718V/L858R/T790M). Briefly: Ba/F3 cell viability, Cell Titer Glo. Particulars: read-out: IC50 Values; Ba/F3 cells expressing EGFR L858R T790M L718V, 72 hours.
For another assay, the target named is EGFR Ex19delT790M L718V (Homo sapiens, UniProt P00533, DEL746-750/L718V/T790M). Briefly: Ba/F3 cell viability, Cell Titer Glo. The note with it: read-out: IC50 Values; Ba/F3 cells expressing EGFR Ex19delT790M L718V, 72 hours.
A further assay deals with EGFR Ex19del/T790M/L792H (Homo sapiens, UniProt P00533, DEL746-750/L792H/T790M). Briefly: Ba/F3 cell viability, Cell Titer Glo. The note with it: read-out: IC50 Values; Ba/F3 cells expressing EGFR Ex19del/T790M/L792H, 72 hours.
A further assay concerns the target EGFR G724S T790M (Homo sapiens, UniProt P00533, G724S/T790M). Briefly: Ba/F3 cell viability, Cell Titer Glo. Particulars: read-out: IC50 Values; Ba/F3 cells expressing EGFR G724S T790M, 72 hours.
The target of a further assay is EGFR T790M (Homo sapiens, UniProt P00533, T790M). Briefly: Ba/F3 cell viability, Cell Titer Glo. Particulars: read-out: IC50 Values; Ba/F3 cells expressing EGFR T790M, 72 hours.
The target in the next assay is EGFR Ex19del/T790M/G724S (Homo sapiens, UniProt P00533, DEL746-750/G724S/T790M). Briefly: Ba/F3 cell viability, Cell Titer Glo. Particulars: read-out: IC50 Values; Ba/F3 cells expressing EGFR Ex19del/T790M/G724S, 72 hours.
The target in another assay is EGFR L858R T790M V843I (Homo sapiens, UniProt P00533, L858R/T790M/V843I). Briefly: Ba/F3 cell viability, Cell Titer Glo. The note with it: read-out: IC50 Values; Ba/F3 cells expressing EGFR L858R T790M V843I, 72 hours.
The target of a further assay is EGFR L858R/T790M (Homo sapiens, UniProt P00533, L858R/T790M). Kind of assay: Ba/F3 cell viability, Cell Titer Glo. The note with it: read-out: IC50 Values; Ba/F3 cells expressing EGFR L858R/T790M, 72 hours.
Another assay has as its target EGFR S768I/T790M (Homo sapiens, UniProt P00533, S768I/T790M). Briefly: Ba/F3 cell viability, Cell Titer Glo. Particulars: read-out: IC50 Values; Ba/F3 cells expressing EGFR S768I/T790M, 72 hours.
Another assay deals with EGFR G719A T790M (Homo sapiens, UniProt P00533, G719A/T790M). Kind of assay: Ba/F3 cell viability, Cell Titer Glo. The note with it: read-out: IC50 Values; Ba/F3 cells expressing EGFR G719A T790M, 72 hours.
The target in the next assay is EGFR Ex19delT790M (Homo sapiens, UniProt P00533, DEL746-750/T790M). Briefly: Ba/F3 cell viability, Cell Titer Glo. The note with it: read-out: IC50 Values; Ba/F3 cells expressing EGFR Ex19delT790M, 72 hours.

Chain of EGFR L858R T790M L718V (P00533 25-1210 L718V/T790M/L858R): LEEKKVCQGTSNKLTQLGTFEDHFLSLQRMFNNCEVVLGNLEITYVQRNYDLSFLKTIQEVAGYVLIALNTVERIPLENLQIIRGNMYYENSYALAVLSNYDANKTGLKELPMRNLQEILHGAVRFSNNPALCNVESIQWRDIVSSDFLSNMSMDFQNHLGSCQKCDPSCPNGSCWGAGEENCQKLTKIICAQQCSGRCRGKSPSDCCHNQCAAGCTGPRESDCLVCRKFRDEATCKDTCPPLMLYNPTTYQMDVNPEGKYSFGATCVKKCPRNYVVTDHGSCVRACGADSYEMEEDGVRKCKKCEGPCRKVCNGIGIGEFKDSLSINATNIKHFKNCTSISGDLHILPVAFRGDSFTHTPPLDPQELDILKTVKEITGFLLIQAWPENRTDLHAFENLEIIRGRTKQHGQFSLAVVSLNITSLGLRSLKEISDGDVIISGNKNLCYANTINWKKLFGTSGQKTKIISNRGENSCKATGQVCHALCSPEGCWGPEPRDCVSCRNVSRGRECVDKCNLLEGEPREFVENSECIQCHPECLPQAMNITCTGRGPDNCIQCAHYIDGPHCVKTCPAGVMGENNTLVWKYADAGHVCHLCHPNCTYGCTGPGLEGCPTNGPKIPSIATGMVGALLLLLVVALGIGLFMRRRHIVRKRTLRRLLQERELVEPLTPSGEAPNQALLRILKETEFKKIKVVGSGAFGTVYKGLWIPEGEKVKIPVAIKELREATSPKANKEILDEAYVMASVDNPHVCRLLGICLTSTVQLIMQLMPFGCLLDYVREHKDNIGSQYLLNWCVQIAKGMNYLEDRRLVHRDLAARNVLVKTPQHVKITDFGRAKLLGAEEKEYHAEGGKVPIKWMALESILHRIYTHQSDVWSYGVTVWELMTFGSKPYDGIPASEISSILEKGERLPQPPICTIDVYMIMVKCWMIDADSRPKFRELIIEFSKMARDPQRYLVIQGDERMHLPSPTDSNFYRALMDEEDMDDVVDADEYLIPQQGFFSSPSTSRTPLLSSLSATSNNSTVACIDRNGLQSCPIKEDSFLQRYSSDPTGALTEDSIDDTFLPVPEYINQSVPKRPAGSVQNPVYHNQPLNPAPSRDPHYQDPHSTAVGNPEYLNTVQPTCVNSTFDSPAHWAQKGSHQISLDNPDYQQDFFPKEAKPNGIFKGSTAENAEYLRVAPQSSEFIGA
Chain of WT EGFR (P00533 25-1210): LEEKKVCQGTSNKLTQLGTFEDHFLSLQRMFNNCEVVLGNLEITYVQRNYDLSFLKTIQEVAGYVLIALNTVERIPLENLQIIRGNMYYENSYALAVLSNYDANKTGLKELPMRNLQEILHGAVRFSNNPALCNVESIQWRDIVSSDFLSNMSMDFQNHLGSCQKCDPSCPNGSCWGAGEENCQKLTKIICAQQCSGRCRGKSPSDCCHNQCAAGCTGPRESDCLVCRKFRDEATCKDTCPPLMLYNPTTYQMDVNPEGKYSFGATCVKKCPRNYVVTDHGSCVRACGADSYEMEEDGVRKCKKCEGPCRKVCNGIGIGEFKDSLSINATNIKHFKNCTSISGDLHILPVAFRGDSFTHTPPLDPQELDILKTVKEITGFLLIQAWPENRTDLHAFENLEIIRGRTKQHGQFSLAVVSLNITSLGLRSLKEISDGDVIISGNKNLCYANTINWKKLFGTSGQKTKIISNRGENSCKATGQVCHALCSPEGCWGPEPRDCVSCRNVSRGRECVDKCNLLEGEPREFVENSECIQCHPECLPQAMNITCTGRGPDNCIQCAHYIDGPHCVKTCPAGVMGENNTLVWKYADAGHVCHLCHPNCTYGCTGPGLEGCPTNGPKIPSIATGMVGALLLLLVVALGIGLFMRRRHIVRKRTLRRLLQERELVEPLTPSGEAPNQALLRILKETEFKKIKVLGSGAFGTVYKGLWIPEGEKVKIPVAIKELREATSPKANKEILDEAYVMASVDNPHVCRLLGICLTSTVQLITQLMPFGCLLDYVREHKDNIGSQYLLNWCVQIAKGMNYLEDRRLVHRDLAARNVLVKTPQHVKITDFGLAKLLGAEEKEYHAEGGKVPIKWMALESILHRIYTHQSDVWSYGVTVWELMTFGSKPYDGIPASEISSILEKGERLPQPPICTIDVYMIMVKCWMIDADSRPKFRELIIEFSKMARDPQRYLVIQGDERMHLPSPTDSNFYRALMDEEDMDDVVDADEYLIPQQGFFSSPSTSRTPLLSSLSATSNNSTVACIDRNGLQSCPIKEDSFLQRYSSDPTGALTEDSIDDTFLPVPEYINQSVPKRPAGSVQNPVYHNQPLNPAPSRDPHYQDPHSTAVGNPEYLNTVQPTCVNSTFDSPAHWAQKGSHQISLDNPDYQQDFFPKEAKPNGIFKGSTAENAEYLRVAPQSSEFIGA
Chain of EGFR L858R T790M/C797S (P00533 25-1210 T790M/C797S/L858R): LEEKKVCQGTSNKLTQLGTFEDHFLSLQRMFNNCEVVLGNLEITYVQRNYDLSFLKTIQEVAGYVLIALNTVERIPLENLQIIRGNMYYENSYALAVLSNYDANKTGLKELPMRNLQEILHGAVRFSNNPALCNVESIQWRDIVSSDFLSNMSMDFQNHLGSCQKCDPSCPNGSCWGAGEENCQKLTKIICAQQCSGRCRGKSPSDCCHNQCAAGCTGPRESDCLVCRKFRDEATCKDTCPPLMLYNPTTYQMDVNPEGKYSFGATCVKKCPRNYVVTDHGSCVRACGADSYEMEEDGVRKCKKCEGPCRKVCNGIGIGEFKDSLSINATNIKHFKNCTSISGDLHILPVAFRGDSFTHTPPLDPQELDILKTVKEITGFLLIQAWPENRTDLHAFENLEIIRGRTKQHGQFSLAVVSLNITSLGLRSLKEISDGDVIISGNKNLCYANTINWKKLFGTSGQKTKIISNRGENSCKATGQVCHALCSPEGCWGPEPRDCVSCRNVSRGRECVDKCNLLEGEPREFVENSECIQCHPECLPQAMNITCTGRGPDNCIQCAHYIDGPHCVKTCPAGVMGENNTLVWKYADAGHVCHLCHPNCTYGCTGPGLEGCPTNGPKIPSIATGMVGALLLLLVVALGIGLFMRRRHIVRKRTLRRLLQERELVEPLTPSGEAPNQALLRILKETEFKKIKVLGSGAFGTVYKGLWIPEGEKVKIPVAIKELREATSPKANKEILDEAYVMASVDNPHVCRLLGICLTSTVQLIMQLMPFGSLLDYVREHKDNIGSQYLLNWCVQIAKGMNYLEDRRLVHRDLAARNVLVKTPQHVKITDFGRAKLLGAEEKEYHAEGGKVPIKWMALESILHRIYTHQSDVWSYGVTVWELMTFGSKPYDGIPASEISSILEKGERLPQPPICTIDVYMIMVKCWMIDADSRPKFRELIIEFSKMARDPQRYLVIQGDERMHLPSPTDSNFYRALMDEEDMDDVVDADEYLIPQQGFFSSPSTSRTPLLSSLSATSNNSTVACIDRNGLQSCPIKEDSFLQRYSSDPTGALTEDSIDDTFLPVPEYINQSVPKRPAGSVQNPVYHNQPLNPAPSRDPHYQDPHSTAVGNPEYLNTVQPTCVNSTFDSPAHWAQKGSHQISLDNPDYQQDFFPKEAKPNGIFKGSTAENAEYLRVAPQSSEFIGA
Chain of EGFR Ex19delT790M L718V (P00533 with tags, fused parts or gaps L718V/DEL746-750/T790M): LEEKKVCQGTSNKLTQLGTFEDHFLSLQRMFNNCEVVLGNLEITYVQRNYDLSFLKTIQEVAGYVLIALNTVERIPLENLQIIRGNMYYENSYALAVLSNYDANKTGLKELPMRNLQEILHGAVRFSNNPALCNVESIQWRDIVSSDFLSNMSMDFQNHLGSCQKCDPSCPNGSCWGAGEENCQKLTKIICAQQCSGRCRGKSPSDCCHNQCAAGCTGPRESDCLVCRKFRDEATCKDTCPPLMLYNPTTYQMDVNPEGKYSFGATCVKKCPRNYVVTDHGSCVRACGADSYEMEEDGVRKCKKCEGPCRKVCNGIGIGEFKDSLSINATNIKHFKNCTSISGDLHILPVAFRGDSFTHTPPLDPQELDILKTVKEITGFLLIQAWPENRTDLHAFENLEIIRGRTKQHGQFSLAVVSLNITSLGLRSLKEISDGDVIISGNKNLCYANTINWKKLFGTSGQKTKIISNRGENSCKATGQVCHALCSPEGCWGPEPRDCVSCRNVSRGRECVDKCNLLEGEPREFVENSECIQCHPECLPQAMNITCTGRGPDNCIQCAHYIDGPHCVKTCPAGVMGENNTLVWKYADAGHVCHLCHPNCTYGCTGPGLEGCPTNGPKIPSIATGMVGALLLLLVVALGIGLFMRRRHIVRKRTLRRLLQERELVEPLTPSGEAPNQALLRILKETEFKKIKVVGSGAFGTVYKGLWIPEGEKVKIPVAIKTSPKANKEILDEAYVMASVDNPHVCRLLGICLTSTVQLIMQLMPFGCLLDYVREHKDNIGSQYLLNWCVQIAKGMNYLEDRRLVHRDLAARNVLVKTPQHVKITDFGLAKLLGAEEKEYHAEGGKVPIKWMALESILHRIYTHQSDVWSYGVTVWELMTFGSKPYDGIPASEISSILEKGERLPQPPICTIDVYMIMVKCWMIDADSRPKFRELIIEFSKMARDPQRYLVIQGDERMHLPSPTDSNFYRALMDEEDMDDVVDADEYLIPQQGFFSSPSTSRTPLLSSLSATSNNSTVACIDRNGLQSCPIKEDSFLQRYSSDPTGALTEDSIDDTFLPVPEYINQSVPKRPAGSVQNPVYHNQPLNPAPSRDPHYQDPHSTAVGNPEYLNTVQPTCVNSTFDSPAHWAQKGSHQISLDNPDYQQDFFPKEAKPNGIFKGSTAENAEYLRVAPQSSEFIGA
Experimental for EGFR Ex19del T790M C797S: (§1) Cell viability was determined by the Cell Titer Glo assay.
(§2) Briefly, stable Ba/F3 cell lines were generated by retroviral transduction of Ba/F3 cell line for 12 hours. […] Three days after transduction, 2 μg/ml puromycin (Invitrogen) was added to the RPMI media. Cell lines were then grown in the absence of IL-3 for two weeks and cell viability was assessed every three days using the Cell Titer Glo assay (Progema).
(§3) Briefly, 2000-3000 cells per well were plated in 384-well plates (Greiner Bio-One) in technical triplicate. Cells were treated with seven different concentrations of tyrosine kinase inhibitors or vehicle alone at a final volume of 40 μL per well. After 3 days, 11 μL of Cell Titer Glo was added to each well. Plates were shaken for 15 minutes, and bioluminescence was determined using a FLUOstar OPTIMA multi-mode micro-plate reader (BMG LABTECH). Bioluminescence values were normalized to DMSO treated cells, and normalized values were plotted in GraphPad Prism using non-linear regression fit to normalized data with a variable slope.
Experimental for EGFR Ex19del/T790M/G724S: as §1, §3
Experimental for EGFR Ex19del/T790M/L792H: as §1, §2, §3
Experimental for EGFR Ex19delT790M L718V: as §1, §2, §3
Experimental for EGFR G719A T790M: as §1, §3
Experimental for EGFR G724S T790M: as §1, §2, §3
Experimental for EGFR L718Q T790M: as §1, §2, §3
Experimental for EGFR L858R T790M L718V: as §1, §2, §3
Experimental for EGFR L858R T790M L792H: as §1, §2, §3
Experimental for EGFR L858R T790M V843I: as §1, §2, §3
Experimental for EGFR L858R T790M/C797S: as §1, §2, §3
Experimental for EGFR L858R/T790M/L718Q: as §1, §2, §3
Experimental for EGFR S768I/T790M: as §1, §3
Experimental for EGFR T790M: as §1, §2, §3
Experimental for WT EGFR: as §1, §2, §3

Regarding `COc1cc(N2CCC(N)CC2)ccc1Nc1ncc(Cl)c(-c2c[nH]c3ccccc23)n1` [AZD3463], the IC50 (usually the concentration that gives 50% inhibition) amounted to 1.63 µM at WT EGFR; 1.55 µM at EGFR L858R T790M L792H; 1.27 µM at EGFR L858R T790M/C797S; 1.44 µM on EGFR Ex19del T790M C797S; 1.12 µM at EGFR L858R/T790M/L718Q; 1.14 µM on EGFR L718Q T790M. The IC50 on EGFR L858R T790M L718V stood at 0.662 µM; at EGFR Ex19delT790M L718V it was 1.34 µM; on EGFR Ex19del/T790M/L792H, 1.09 µM; at EGFR G724S T790M, 0.695 µM; at EGFR T790M it was 1.27 µM; at EGFR Ex19del/T790M/G724S, 1.61 µM. Also, the IC50 was found to be 0.768 µM on EGFR L858R T790M V843I; 2.4 µM at EGFR L858R/T790M; 1.73 µM on EGFR S768I/T790M; 1.34 µM at EGFR G719A T790M; 0.255 µM on EGFR Ex19delT790M.
